Results from PubChem BioAssay AID488890 (Southern Research Specialized Biocontainment Screening …, 2010).
pIC50: −log10 of the molar value. Records with an inconclusive call do not appear. Calls of active or inactive are those of the source. How the calls were made is not given here.

These molecules were tested on Mycobacterium tuberculosis non-replicating, growth inhibition (assay: growth inhibition of non-replicating M. tuberculosis (AID 488890)).

Row | SMILES | pIC50 | IC50
1 | CCC1CCC(c2nnc(-c3ccc([N+](=O)[O-])cc3)o2)CC1 (stereo unspecified) | > 7.00 | 
2 | Cc1ccc(S(=O)(=O)Nc2cccc3ncccc23)s1 | 5.27 | 
3 | C/C(=N\Nc1cccc2cccnc12)c1ccccn1 |  | 32.7 µM (inactive)
4 | CC(C)(C)OC(=O)N/N=C\c1ccc(OC(=O)c2ccco2)cc1 |  | 12.6 µM (inactive)
5 | COc1cccc2cc(C(=O)c3ccc([N+](=O)[O-])cc3)oc12 | 5.22 | 
6 | CN=C1S/C(=C\c2ccc(OCC(=O)OC)c(OC)c2)C(=O)N1C |  | 16.5 µM (inactive)
7 | CCCCN(CC)S(=O)(=O)c1ccc(C(=O)Nc2nnc(-c3cccs3)o2)cc1 |  | 11.3 µM (inactive)
8 | CCOC(=O)Cn1c(-c2ccccc2)ccc(C#N)c1=O | 5.33 | 
9 | O=C(CCC1CCCCC1)NCc1ccc(F)cc1 | 5.28 | 
10 | CCC(C)c1ccc(OCCn2ccnc2)cc1 (stereo unspecified) |  | 10.4 µM (inactive)
11 | CCOc1ccc(NC(=O)CCC(=O)N/N=C/c2ccc([N+](=O)[O-])s2)cc1 | 5.08 | 
12 | CCOc1cccc(/C=N/NC(=O)c2ccc3c(c2)OCCO3)c1O | 5.95 | 
13 | O=c1oc2ccccc2nc1/C=C(\O)c1ccc(Br)cc1 | 5.22 | 
14 | COc1cc(C(=O)ON=C2C=C(C)C(=O)C(C)=C2)cc(OC)c1OC |  | 48.6 µM (inactive)
15 | O=C(OCC(=O)N1CCC(c2ccccc2)=N1)c1ccc([N+](=O)[O-])s1 | 6.21 | 
16 | O=S(=O)(CCN1CCN(c2ccccn2)CC1)c1ccc(Cl)cc1Cl | 5.06 | 
17 | O=C(Nc1cc(C(F)(F)F)ccc1-n1cncn1)c1ccc([N+](=O)[O-])o1 |  | 17.9 µM (inactive)
18 | C/C(=N\NC(=O)c1ccccc1OCc1ccc(F)cc1)c1ccccn1 | 5.55 | 
19 | Cn1c(=O)c(C(=O)Nc2ccccn2)c(O)c2ccccc21 |  | 13.2 µM (inactive)
20 | O=C(OCc1cccc(F)c1)c1ccc2c(=O)n3c(nc2c1)CCC3 | 5.06 | 
21 | Cc1cc(N2CCCCC2)nc(NCc2ccccc2)n1 | 5.08 | 
22 | COc1ccc(N=N/C(=C\O)C(=O)c2cccs2)cc1 | 5.01 | 
23 | Cc1nn2c(NCCN(C)C)c3c(nc2c1-c1ccccc1)CCCC3 | 5.29 | 
24 | COc1ccc(NC(=O)Nc2ccc(O)c3ccccc23)cc1 | 5.43 | 

Row | SMILES | pIC50 | IC50
25 | NC(=O)CN1CCN(C2CC(=O)N(CCc3ccccc3)C2=O)CC1 (stereo unspecified) |  | 19.9 µM (inactive)
26 | CN(C)/C=C1/C(=O)N(c2ccc([N+](=O)[O-])cc2)N=C1c1ccccc1 |  | 17.7 µM (inactive)
27 | Nc1c(Cl)cc(Cl)cc1C(=O)OCC(=O)N1CCCC1 | 5.61 | 
28 | COc1ccc(CNC(=O)c2cc3cccc(O)c3oc2=N)cc1 |  | 14.3 µM (inactive)
29 | CN1CCC(O)(c2ccc(Cl)cc2)C(C(=O)c2ccc(Cl)cc2)C1 (stereo unspecified) | 5.71 | 
30 | COc1ccccc1C1=Nn2c(nnc2C2CCCCC2)SC1 |  | 13.9 µM (inactive)
31 | COc1ccc(CN2C(=O)/C(=C/c3ccncc3)SC2=S)cc1 |  | 39.3 µM (inactive)
32 | N#Cc1ccc(N=c2ssnc2Cl)cc1 |  | 18.1 µM (inactive)
33 | Cc1cnc(C(=O)NNC(=O)c2ccc(Br)cc2)cn1 | 5.31 | 
34 | Cc1ccc2nc(C)c3c(c2c1)SCC3 |  | 11.6 µM (inactive)
35 | Cc1nc([N+](=O)[O-])c(Br)n1CC(=O)c1ccc(Cl)cc1 | 5.24 | 
36 | CC1(C(=O)NC(=S)NNC(=O)c2ccncc2)CCCCC1 | 6.03 | 
37 | O=c1c(O)c(-c2cccs2)oc2ccc(Cl)cc12 | 5.97 | 
38 | CCOC(=O)N/N=C\c1ccc([N+](=O)[O-])s1 | 5.04 | 
39 | Cc1cccc(OCC(O)Cn2c(=N)n(Cc3ccccc3)c3ccccc32)c1 (stereo unspecified) |  | 20.4 µM (inactive)
40 | CC(C)Oc1ccc(C(=O)CCN2CCCCC2)cc1 | 5.21 | 
41 | O=C(COC(=O)c1cccc([N+](=O)[O-])c1)NCc1cccs1 |  | 25.7 µM (inactive)
42 | COC(=O)CN(C#N)c1nc(SC)nc(N(C)C)n1 |  | 15.9 µM (inactive)
43 | Cc1ccc(C(C)NC(=O)c2cc3ccccc3oc2=O)cc1C (stereo unspecified) | 5.51 | 
44 | Cc1cccc(CC(=O)NCC2CCCCC2)c1 |  | 16.7 µM (inactive)
45 | CC(C)(C)c1cc(CN2CCC(O)CC2)cc(C(C)(C)C)c1O | 5.16 | 
46 | CC(C)=CCN1CCN(CCC2=C(C)CCCC2(C)C)CC1CCO (stereo unspecified) | 5.12 | 
47 | Cc1ccc(-c2nnc(C)c(N3CCCC3)n2)cc1 | 5.05 | 
48 | CN1CC(=O)NC1=NC(=O)C12CC3CC(CC(C3)C1)C2 | 5.39 | 

Row | SMILES | pIC50 | IC50
49 | COC(=O)c1ccc(Sc2nnnn2-c2ccccc2)c([N+](=O)[O-])c1 | 5.11 | 
50 | CCOC(=O)C(=O)NC12CC3CC(CC(C3)C1)C2 | 5.19 | 
51 | COC(=O)c1ccc2c(c1O)C(=O)c1ccccc1C2=O | 5.84 | 
52 | COC(=O)COc1cccc(NC(=O)c2ccc(Cl)cc2)c1 | 5.40 | 
53 | COc1cc2ccccc2cc1C(=O)Nc1sc2c(c1C(N)=O)CCN(C(C)C)C2 |  | 19 µM (inactive)
54 | O=C(NNC(=O)c1ncc(Cl)c(Cl)c1Cl)c1ccc(F)cc1 |  | 15.1 µM (inactive)
55 | O=C(Nc1nnc(C2=COCCO2)o1)c1ccc(Cc2ccccc2)cc1 |  | 30.6 µM (inactive)
56 | Cc1cc(Br)ccc1OCCCCN1CCC(C)CC1 | 5.02 | 
57 | CCC(C)n1nnc2c(=O)oc3ccccc3c21 (stereo unspecified) | 5.25 | 
58 | C#CCSc1nnc(-c2ccc([N+](=O)[O-])cc2)o1 | > 7.00 | 
59 | Cc1ccc(-n2cc(CNCCc3cscn3)c(-c3ccc(F)cc3)n2)cc1 |  | 10.9 µM (inactive)
60 | O=C(N/N=C/c1cccs1)c1cncc(Br)c1 | 5.31 | 
61 | FC(F)(Cl)c1nnc2ccc(Cl)nn12 | 5.86 | 
62 | COc1cc(CNC2CCCC2)cc(Cl)c1OCc1ccccc1Cl | 5.02 | 
63 | Cc1ccc(NC(=O)ON=C2CCCC2)cc1 | 5.71 | 
64 | C/C(=C\C(=O)c1ccc(Br)cc1)NNC(=O)c1ccccc1 | 6.42 | 
65 | O=C(Nc1nnc(-c2ccc(Cl)cc2)o1)c1cccc(N2C(=O)CCC2=O)c1 |  | 22.3 µM (inactive)
66 | CCC(=O)Nc1nc2ccccc2n1Cc1ccccc1Cl | 5.36 | 
67 | CC1=CC(C)(C)Nc2ccc(OC(=O)CN3C(=O)c4ccccc4C3=O)cc21 | 5.04 | 
68 | COc1ccc(C(=O)N/N=C(\c2ccccc2)c2ccccn2)cc1 | 5.49 | 
69 | CC(C)(C)NCC1(CO)SC(N)=NC1=O (stereo unspecified) |  | 15.5 µM (inactive)
70 | O=C(COc1ccccc1)NCCSCc1ccc(Cl)cc1 |  | 16.4 µM (inactive)
71 | NCCOc1ccc(C23CC4CC(CC(C4)C2)C3)cc1 |  | 16 µM (inactive)
72 | CCCOc1ccc(N2CC(C(=O)Nc3ccccn3)CC2=O)cc1 (stereo unspecified) |  | 10.9 µM (inactive)

Row | SMILES | pIC50 | IC50
73 | COc1ccc(/C=N/Nc2cc(C)nc(-n3nc(C)cc3C)n2)c(OC)c1 | 5.48 | 
74 | O=C(Nc1nc(-c2ccccn2)cs1)c1ccc([N+](=O)[O-])o1 |  | 25.5 µM (inactive)
75 | COc1ccc(Nc2ccccc2N)cc1 | 5.57 | 
76 | CCOc1cc(/C=N/NC(=O)c2ccccn2)ccc1OC(=O)c1cccs1 | 5.26 | 
77 | CCOc1ccc(-c2nnc(NC(=O)CCCOc3cccc(C)c3)o2)cc1 |  | 15 µM (inactive)
78 | CCOC(=O)c1csc(-c2snnc2C)n1 | 5.29 | 
79 | Clc1ccc2c(c1)C(N1CCNCC1)Cc1ccccc1S2 (stereo unspecified) |  | 15.2 µM (inactive)
80 | Cc1ccc(NCCC(=O)c2cccs2)cc1Cl | 5.45 | 
81 | CC(C)c1nnc(NC(=O)c2c(O)c3cccc4c3n(c2=O)CCC4)s1 | 5.91 | 
82 | Cc1nnc(N/N=C/c2cccc(OCc3ccc(Cl)c(Cl)c3)c2)n1N | 5.47 | 
83 | CCn1c(NC(=O)c2ccccc2)nc2ccccc21 | 5.35 | 
84 | Cn1cnc([N+](=O)[O-])c1Sc1ccc(Br)cc1 |  | 23.6 µM (inactive)
85 | CCCCCCCNC(=O)C1(CC2CC(c3cccc(Br)c3)=NO2)CCNCC1 (stereo unspecified) |  | 13.7 µM (inactive)
86 | COC(=O)CC(=O)N1CCN(c2ccc(Cl)c(Cl)c2)CC1 | 5.24 | 
87 | Cc1ccc(C(=O)CCNc2ccc(F)c(Cl)c2)o1 |  | 11 µM (inactive)
88 | O=C1c2cccc3cc([N+](=O)[O-])cc(c23)C(=O)N1c1ccccc1O |  | 15.1 µM (inactive)
89 | CCOC(=O)C1CSC(CC(=O)Nc2ccc(Cl)c(Cl)c2)C(=O)N1 (stereo unspecified) |  | 10.7 µM (inactive)
90 | CCOC(=O)c1ccc(NC(=O)NS(=O)(=O)c2ccc(C)cc2)cc1 | 5.48 | 
91 | Cc1ccc(C)c(-c2nnc(NC(=O)c3ccc([N+](=O)[O-])o3)o2)c1 | 6.34 | 
92 | c1ccc(-c2cccc(-c3ccccn3)n2)nc1 |  | 19.7 µM (inactive)
93 | COc1cc(CNCCNC(=O)c2nonc2N)ccc1OCc1ccc(Cl)cc1 |  | 12.2 µM (inactive)
94 | CC(C)(C)c1ccc(C(=O)Nc2nnc(C3=COCCO3)o2)cc1 | 5.51 | 
95 | O=C(Nc1ccc(Cl)cn1)C1COc2ccccc2O1 (stereo unspecified) | 5.48 | 
96 | COc1cccc(-c2nnc(NC(=O)c3cccc(F)c3)o2)c1 |  | 11.1 µM (inactive)

Row | SMILES | pIC50 | IC50
97 | CN(C)CCCn1c(=O)n(C2CCCCC2)c(=O)c2c3c(sc21)CCCCC3 |  | 20.7 µM (inactive)
98 | CC(C)(O)C#Cc1ccc(C(=O)Nc2ccc3c(c2)OCO3)s1 | 5.22 | 
99 | Cc1ccc2nc(C)c3c(c2c1)COC3 |  | 29.8 µM (inactive)
100 | Cc1ccccc1NCC(=O)N/N=C\c1ccc([N+](=O)[O-])s1 | 5.45 | 
101 | O=C(COc1cccc2ccccc12)Nc1nc2ccccc2[nH]1 | 5.27 | 
102 | CSc1ccc(C(=O)C2CCCN(C(=O)c3ccc4c(c3)no[n+]4[O-])C2)cc1 (stereo unspecified) | 5.39 | 
103 | Cc1cccc(NC(=O)COC(=O)c2cc3ccccc3oc2=O)c1 |  | 14.2 µM (inactive)
104 | Cc1cc(C)c(C(=O)COC(=O)c2ccc([N+](=O)[O-])o2)cc1C | 6.03 | 
105 | CCCOc1ccc(C(=O)NNC(=S)NC(=O)c2cccs2)cc1 | 6.34 | 
106 | Cn1c(O)c(C(=Nc2ccccc2)SCc2ccccc2Cl)c(=O)n(C)c1=O | 5.08 | 
107 | O=C(COc1ccc2ccccc2c1Br)N1CCCC1 | 6.25 | 
108 | CCOC(=O)CNC(=O)CNC(=O)c1nn(-c2ccc(OC)c(Cl)c2)c(=O)c2ccccc12 |  | 29.1 µM (inactive)
109 | O=C(O)c1ccc(CN2C(=O)CSC2=S)cc1 | 5.05 | 
110 | CCOC(=O)c1cc(COc2cc(Cl)cc(Cl)c2)on1 | 6.23 | 
111 | O=C1CCCC(O)=C1C=Nc1ccc2c(c1)oc1ccccc12 | 5.09 | 
112 | CC(C)c1nnc(NC(=O)c2cc3cc(Br)ccc3oc2=O)s1 | 5.36 | 
113 | Cc1ccc(N/N=C2\CS(=O)(=O)N(C)c3ccsc32)cc1 | 6.51 | 
114 | O=C(NCC1CCN(c2ccc(S(=O)(=O)N3CCOCC3)cc2)CC1)c1ccc(Cl)cc1 |  | 24.1 µM (inactive)
115 | CCOCCOC(=O)c1ccc(NC(=O)C2COc3ccccc3O2)cc1 (stereo unspecified) | 5.38 | 
116 | COc1ccc(C(=O)CCN2CCCCCC2)cc1 | 5.69 | 
